From paper PMC3314654, “Characterization of Rhodamine-123 as a Tracer Dye for Use In In vitro Drug Transport Assays” (PLoS ONE, 2012)

Tests used:
ABCB1 (MDR1) = ABCB1 (MDR1) (Homo sapiens, UniProt P08183); assay: R123 efflux from MDCKII-ABCB1 versus naive MDCKII cells (Km); format: cell-based; details: mdck
OATP1A2 = target: T1, OATP1A2 (Homo sapiens, UniProt P46721); assay: R123 uptake in BacMam-transduced HEK293-MSRII cells (Km); format: cell-based
T1 construct: gene SLCO1A2
T1 sequence (P46721 1-670): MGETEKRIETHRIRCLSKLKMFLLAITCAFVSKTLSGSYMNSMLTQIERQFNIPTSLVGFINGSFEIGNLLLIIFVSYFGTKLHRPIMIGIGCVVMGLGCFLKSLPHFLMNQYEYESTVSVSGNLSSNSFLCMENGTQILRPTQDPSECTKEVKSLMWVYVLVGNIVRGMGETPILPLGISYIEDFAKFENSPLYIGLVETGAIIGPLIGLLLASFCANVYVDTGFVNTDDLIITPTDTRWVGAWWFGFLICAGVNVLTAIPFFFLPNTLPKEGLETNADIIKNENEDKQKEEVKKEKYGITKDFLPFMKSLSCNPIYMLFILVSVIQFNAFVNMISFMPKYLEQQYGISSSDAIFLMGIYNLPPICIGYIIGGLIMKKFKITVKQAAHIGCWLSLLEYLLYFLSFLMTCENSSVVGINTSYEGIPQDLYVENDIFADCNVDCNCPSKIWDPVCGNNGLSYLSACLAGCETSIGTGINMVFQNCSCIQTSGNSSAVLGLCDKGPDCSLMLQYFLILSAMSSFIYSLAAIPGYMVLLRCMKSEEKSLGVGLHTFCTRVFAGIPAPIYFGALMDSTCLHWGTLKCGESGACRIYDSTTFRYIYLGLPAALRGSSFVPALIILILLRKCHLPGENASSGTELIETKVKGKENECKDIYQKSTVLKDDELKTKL

Sequence of ABCB1 (MDR1) (P08183 whole entry): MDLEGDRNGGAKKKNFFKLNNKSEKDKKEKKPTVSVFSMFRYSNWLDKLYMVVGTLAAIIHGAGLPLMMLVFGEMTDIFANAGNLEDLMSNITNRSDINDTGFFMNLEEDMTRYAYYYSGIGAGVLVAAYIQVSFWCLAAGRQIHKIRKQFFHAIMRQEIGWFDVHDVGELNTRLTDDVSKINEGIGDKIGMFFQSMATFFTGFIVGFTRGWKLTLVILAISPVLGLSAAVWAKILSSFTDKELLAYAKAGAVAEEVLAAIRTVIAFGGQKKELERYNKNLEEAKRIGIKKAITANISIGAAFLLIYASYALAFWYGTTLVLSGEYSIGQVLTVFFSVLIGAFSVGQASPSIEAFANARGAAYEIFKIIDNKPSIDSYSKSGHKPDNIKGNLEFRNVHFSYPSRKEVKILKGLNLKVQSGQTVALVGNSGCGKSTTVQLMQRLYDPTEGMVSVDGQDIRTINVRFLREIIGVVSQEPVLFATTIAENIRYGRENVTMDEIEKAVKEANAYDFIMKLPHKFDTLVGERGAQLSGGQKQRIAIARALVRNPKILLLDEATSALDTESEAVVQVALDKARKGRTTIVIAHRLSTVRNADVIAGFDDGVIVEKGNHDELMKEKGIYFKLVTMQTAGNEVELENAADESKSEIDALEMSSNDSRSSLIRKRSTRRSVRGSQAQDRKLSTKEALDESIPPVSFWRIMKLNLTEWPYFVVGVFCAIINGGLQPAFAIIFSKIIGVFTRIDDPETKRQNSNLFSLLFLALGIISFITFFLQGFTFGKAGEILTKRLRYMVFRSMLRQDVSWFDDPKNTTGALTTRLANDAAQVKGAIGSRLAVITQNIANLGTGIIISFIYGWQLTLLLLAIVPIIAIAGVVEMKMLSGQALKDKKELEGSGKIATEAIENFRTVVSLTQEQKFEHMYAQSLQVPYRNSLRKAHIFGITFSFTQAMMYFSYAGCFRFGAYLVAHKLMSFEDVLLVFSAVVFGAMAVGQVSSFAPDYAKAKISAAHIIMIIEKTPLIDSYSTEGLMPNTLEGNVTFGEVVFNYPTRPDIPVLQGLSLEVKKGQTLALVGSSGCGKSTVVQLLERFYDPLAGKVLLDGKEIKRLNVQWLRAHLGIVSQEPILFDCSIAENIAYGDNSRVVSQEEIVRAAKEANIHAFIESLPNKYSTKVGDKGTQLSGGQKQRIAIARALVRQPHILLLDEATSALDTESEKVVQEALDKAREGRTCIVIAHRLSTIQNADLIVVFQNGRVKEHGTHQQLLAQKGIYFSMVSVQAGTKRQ

SMILES: COC(=O)c1ccccc1-c1c2ccc(=N)cc-2oc2cc(N)ccc12 [R123, Rhodamine 123]
- Km (ABCB1 (MDR1)): 17.5 ± 2.8 µM
- Km (OATP1A2): 0.3 ± 0.1 µM
